Laboratory results from ChEMBL document CHEMBL1201862, “PubChem BioAssay data set” (2004).
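Cultured in 96-well plates, cells were exposed to test compound for 48 hours across five concentrations. GI50 is the concentration that inhibits growth by half.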 Calls of active or inactive are those of the source. Cut-off read from the data, not from the text of the source: active = GI50 up to about 1.1 µM and inactive = higher.

What was measured:
Assay in all cases: NCI-60 cell line screen, 48 h
MDA-N = system: MDA-N
SNB-19 = system: SNB-19
OVCAR-5 = system: OVCAR-5
HL-60 = system: HL-60
NCI-H522 = system: NCI-H522
A498 = system: A498
MOLT-4 = system: MOLT-4
K562 = system: K562
UACC-257 = system: UACC-257
SF-539 = system: SF-539
MDA-MB-435 = system: MDA-MB-435
MCF7 = system: MCF7
NCI-H23 = system: NCI-H23
NCI-H460 = system: NCI-H460
A549 = system: A549
HCT-15 = system: HCT-15
SK-MEL-28 = system: SK-MEL-28
Malme-3M = system: Malme-3M
HOP-62 = system: HOP-62
HOP-92 = system: HOP-92

Compound	GI50 (MDA-N)	GI50 (SNB-19)	GI50 (OVCAR-5)	GI50 (HL-60)	GI50 (NCI-H522)	GI50 (A498)	GI50 (MOLT-4)	GI50 (K562)	GI50 (UACC-257)	GI50 (SF-539)	GI50 (MDA-MB-435)	GI50 (MCF7)	GI50 (NCI-H23)	GI50 (NCI-H460)	GI50 (A549)	GI50 (HCT-15)	GI50 (SK-MEL-28)	GI50 (Malme-3M)	GI50 (HOP-62)	GI50 (HOP-92)
Cc1ccc(S(=O)(=O)N/N=C2\CCCCCCCCCCC2CN(C)C)cc1 (stereo not given)	18.5 µM (inactive)	15.5 µM (inactive)	16.3 µM (inactive)	19.4 µM (inactive)	14.3 µM (inactive)	17.7 µM (inactive)	26.7 µM (inactive)	13.2 µM (inactive)	15 µM (inactive)	17.1 µM (inactive)	14.7 µM (inactive)	17 µM (inactive)	23 µM (inactive)	12.4 µM (inactive)	19.3 µM (inactive)	15 µM	14.8 µM (inactive)	16.6 µM (inactive)	17.6 µM (inactive)	10.3 µM (inactive)
CCO[C@@]1(COCc2ccccc2)OC(=O)C[C@@H]1N1C(=O)OC[C@@H]1c1ccccc1	> 100 µM (inactive)	> 100 µM (inactive)	> 100 µM (inactive)	42.8 µM (inactive)	84.3 µM (inactive)	> 100 µM (inactive)	58.9 µM (inactive)	> 100 µM (inactive)	> 100 µM (inactive)	> 100 µM (inactive)	> 100 µM (inactive)	> 100 µM (inactive)	> 100 µM (inactive)	> 100 µM (inactive)	> 100 µM (inactive)	> 100 µM	> 100 µM (inactive)	> 100 µM (inactive)	26.6 µM (inactive)	> 100 µM (inactive)
COC(=O)c1ccccc1C1CN=NC12Cc1cc(C)cc(C)c1C2=O (stereo not given)	57 µM (inactive)	> 100 µM (inactive)	> 100 µM (inactive)	22 µM (inactive)	13.3 µM (inactive)	2.9 µM (inactive)	32.1 µM (inactive)	40.5 µM (inactive)	34 µM (inactive)	> 100 µM (inactive)	36.4 µM (inactive)	27.5 µM (inactive)	15.1 µM (inactive)	45.5 µM (inactive)	45.5 µM (inactive)	17.3 µM	> 100 µM (inactive)	97.9 µM (inactive)	> 100 µM (inactive)	26.9 µM (inactive)
COc1ccc(-c2cc(=O)c3c(O)c(OC)c(O)cc3o2)cc1O	0.406 µM (active)	13.6 µM (inactive)	32.8 µM (inactive)	1.25 µM (inactive)	1.97 µM (inactive)	4.9 µM (inactive)	3.19 µM (inactive)	0.679 µM (active)	8.02 µM (inactive)	2.69 µM (inactive)	0.582 µM (active)	3.79 µM (inactive)	17.7 µM (inactive)	3.3 µM (inactive)	6.4 µM (inactive)	1.9 µM	22.5 µM (inactive)	1.3 µM (inactive)	6.9 µM (inactive)	15 µM (inactive)
Cc1nc(SCC(=O)Nc2ccc(Cl)cc2)c2sc(=S)n(-c3ccccc3)c2n1	> 10 µM (inactive)	> 10 µM (inactive)	> 10 µM (inactive)	> 10 µM (inactive)	> 10 µM (inactive)	> 10 µM (inactive)	> 10 µM (inactive)	6.41 µM (inactive)	> 10 µM (inactive)	> 10 µM (inactive)	> 10 µM (inactive)	> 10 µM (inactive)	> 10 µM (inactive)	> 10 µM (inactive)	> 10 µM (inactive)	> 10 µM	> 10 µM (inactive)	> 10 µM (inactive)	> 10 µM (inactive)	5.15 µM (inactive)
NNC(=O)CC(=O)Nc1ccccc1Cl	> 100 µM (inactive)	> 100 µM (inactive)	> 100 µM (inactive)	> 100 µM (inactive)	> 100 µM (inactive)	> 100 µM (inactive)	> 100 µM (inactive)	> 100 µM (inactive)	> 100 µM (inactive)	> 100 µM (inactive)	> 100 µM (inactive)	> 100 µM (inactive)	> 100 µM (inactive)	> 100 µM (inactive)	> 100 µM (inactive)	> 100 µM	> 100 µM (inactive)	> 100 µM (inactive)	> 100 µM (inactive)	> 100 µM (inactive)
O=C1CCc2c(sc3ncnc(Nc4cccc(Br)c4)c23)C1	2.65 µM (inactive)	4.12 µM (inactive)	6.98 µM (inactive)	4.32 µM (inactive)	2.1 µM (inactive)	14 µM (inactive)	3.2 µM (inactive)	2.75 µM (inactive)	3.55 µM (inactive)	3.63 µM (inactive)	1.94 µM (inactive)	3.93 µM (inactive)	3.01 µM (inactive)	3.99 µM (inactive)	3.11 µM (inactive)	3.24 µM	24.2 µM (inactive)	1.76 µM (inactive)	5.53 µM (inactive)	2.54 µM (inactive)
COc1ccc(-c2cc(=O)c3c(OC)c(OC)c(OC)c(OC)c3o2)cc1OC [NOBILETIN]	49.9 µM (inactive)	> 100 µM (inactive)	> 100 µM (inactive)	17.3 µM (inactive)	28.6 µM (inactive)	25.2 µM (inactive)	25.2 µM (inactive)	36.3 µM (inactive)	33.5 µM (inactive)	> 100 µM (inactive)	45.1 µM (inactive)	4.86 µM (inactive)	47.1 µM (inactive)	52.8 µM (inactive)	42.8 µM (inactive)	26.5 µM	> 100 µM (inactive)	> 100 µM (inactive)	44.7 µM (inactive)	18.3 µM (inactive)
C=CCN1C(=O)CNC1=S	> 100 µM (inactive)	> 100 µM (inactive)	> 100 µM (inactive)	23.7 µM (inactive)	> 100 µM (inactive)	> 100 µM (inactive)	> 100 µM (inactive)	40.6 µM (inactive)	> 100 µM (inactive)	> 100 µM (inactive)	> 100 µM (inactive)	> 100 µM (inactive)	> 100 µM (inactive)	> 100 µM (inactive)	> 100 µM (inactive)	> 100 µM	> 100 µM (inactive)	> 100 µM (inactive)	> 100 µM (inactive)	> 100 µM (inactive)
CCOC(=O)CC[C@H](NC(=O)c1ccc(CNc2nc3cc(C(F)(F)F)ccc3nc2C(=O)OCC)cc1)C(=O)OCC	> 100 µM (inactive)	9.14 µM (inactive)	34.7 µM (inactive)	> 100 µM (inactive)	15.7 µM (inactive)	> 100 µM (inactive)	> 100 µM (inactive)	70.3 µM (inactive)	42.8 µM (inactive)	4.59 µM (inactive)	> 73.6 µM (inactive)	19 µM (inactive)	26.1 µM (inactive)	15.5 µM (inactive)	34.7 µM (inactive)	76.2 µM	> 69.8 µM (inactive)	18.8 µM (inactive)	9.25 µM (inactive)	13 µM (inactive)
